The source of these data is paper PMC5993337, “De novo biosynthesis of sterols and fatty acids in the Trypanosoma brucei procyclic form: Carbon source preferences and metabolic flux redistributions” (PLoS Pathogens, 2018).

The test concerns the target T1, IVDH (isovaleryl-CoA dehydrogenase), his-tagged recombinant T. brucei IVDH (Trypanosoma brucei, UniProt Q387A0).
T1 construct: gene Tb11.55.0026; lacks N-terminal 13 residues (gene positions 41 to 1234 bp), 6 His codons at 3' end, pET28, E. coli BL21(DE3) with GroEL-ES
T1 sequence (Q387A0 14-411): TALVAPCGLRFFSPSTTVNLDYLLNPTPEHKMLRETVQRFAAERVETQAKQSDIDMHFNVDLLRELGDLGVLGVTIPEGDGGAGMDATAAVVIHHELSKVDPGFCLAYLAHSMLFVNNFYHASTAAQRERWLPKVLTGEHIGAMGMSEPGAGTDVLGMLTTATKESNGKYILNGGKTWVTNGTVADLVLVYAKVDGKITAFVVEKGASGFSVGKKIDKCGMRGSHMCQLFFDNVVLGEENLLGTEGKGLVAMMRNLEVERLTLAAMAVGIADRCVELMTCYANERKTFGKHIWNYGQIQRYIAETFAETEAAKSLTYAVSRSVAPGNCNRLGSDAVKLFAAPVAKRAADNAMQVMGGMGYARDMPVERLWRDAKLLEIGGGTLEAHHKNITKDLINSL
The experiment in a line: spectrophotometric dye-reduction assay ([…],6-dichloroindophenol, […] nm). The class given is biochemical. The settings on record: isovaleryl-CoA 52.5 uM, phenazine methosulfate 1.5 mM, FAD 10 uM, 100 mM KPi pH 7.0, 25 °C.

As for `CC(C)CC(=O)SCCNC(=O)CCNC(=O)[C@H](O)C(C)(C)COP(=O)(O)OP(=O)(O)OC[C@H]1O[C@@H](n2cnc3c(N)ncnc32)[C@H](O)[C@@H]1OP(=O)(O)O` [isovaleryl-CoA], the “spectrophotometric dye-reduction assay (2,6-dichloroindophenol, 600 nm)” value is listed as “specific activity of the his-tagged recombinant T. brucei IVDH purified to homogeneity for its substrate”.
